Holding throughout (test): NCI-60 cell line screen, 48 h
In assay [1] the test system is A498 renal.
Assay [2] relates to CCRF-CEM leukemia.
Assay [3] has as its system HL-60(TB) leukemia.
Assay [4] relates to MDA-MB-231 breast.
Assay [5] deals with MDA-MB-435.
The test system of assay [6] is OVCAR-3 ovarian.
Assay [7] has as its system OVCAR-4 ovarian.
Assay [8] deals with OVCAR-8 ovarian.
The test system of assay [9] is SNB-19 CNS.
In assay [10] the test system is UACC-62 melanoma.

Several values for one entry are separate records, joined by “and”; a condition that tells them apart may be missing. Equal entries are not always repeated.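 Interpolation was linear, between the two tested concentrations surrounding the appropriate level; five concentrations were tested over 48 hours in 96-well plates. GI50 marks 50% less growth. TGI denotes the concentration required for complete inhibition of growth.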

With `N#CC(NNC(=O)c1c(Cl)c(Cl)c(Cl)c(Cl)c1-c1nc2ccc(C(=O)c3ccccc3)cc2[nH]1)c1cccc(Oc2ccccc2)c1` (configuration not stated), the TGI in assay [1] was 63.4 µM; in assay [2], 29 µM; in [3] it was 83.6 µM; in assay [4] it was 45.2 µM; in assay [5], 53.6 µM; in assay [6] it was over 100 µM. Further, the TGI in assay [7] was over 100 µM; in assay [8], over 100 µM; in assay [9], 90 µM.
Regarding `Nc1nc(Cl)cc(NCC2CC(O)(CO)C2)n1` (configuration not stated), the TGI in assay [1], in assay [2], in [3], in assay [4], in [5] and in [6] was over 100 µM each time. Besides, the TGI in [7], in assay [8] and in [10] was over 100 µM throughout.
With `COC1OC(=O)C(OC)C(OC)C1OC` (configuration not stated), the TGI in [1], in assay [3], in [4], in assay [5], in [6] and in assay [7] was over 100 µM in each case. For the same molecule, the TGI in assay [8], in [9] and in [10] was over 100 µM in each case.
As for `CC(C)(C)C1=CC(O)(c2c3ccccc3c(C3(O)C=C(C(C)(C)C)C(=O)C(C(C)(C)C)=C3)c3ccccc23)C=C(C(C)(C)C)C1=O`, the TGI is 0.65 µM in assay [1]; over 100 µM in assay [2]; over 100 µM in assay [4]; 0.0354 µM in [5]; over 100 µM in assay [6]; over 100 µM in [7]. In addition, the TGI in assay [8], in assay [9] and in assay [10] was over 100 µM throughout.
`COc1ccc(C(OCC2OC(n3ccc(Oc4c(F)c(F)c(F)c(F)c4F)nc3=O)CC2OP(OCCC#N)N(C(C)C)C(C)C)(c2ccccc2)c2ccc(OC)cc2)cc1` (configuration not stated): the TGI in assay [1], in [2], in assay [3], in assay [4], in [5] and in assay [6] was over 100 µM throughout. For the same molecule, the TGI in [8], in assay [9] and in assay [10] was over 100 µM in each case.
Take `Nc1nn2cc(-c3ccccc3)[n+](CC(=O)c3ccccc3)c2s1`: the TGI in [1] is over 100 µM; in assay [2], 54.6 µM; in assay [3], over 100 µM; in [4], over 100 µM; in assay [5], over 100 µM; in assay [6], 71.3 µM. Besides, the TGI in assay [8] was over 100 µM; in assay [9], 52.9 µM; in assay [10], over 100 µM.
Take `CC1=NNC(N)=N/C1=C\C(Sc1ccc(Cl)cc1)c1ccc(Cl)cc1Cl` (configuration not stated): the TGI in [1] is 42.8 µM; in [2] it was 7.62 µM; in assay [3] it was 22.2 µM; in assay [4], over 52.3 µM; in [5] it was over 76.6 µM; in assay [7], 44.6 µM. For the same molecule, the TGI in [8] is 31.7 µM; in assay [9], 32.8 µM; in [10], over 51.9 µM.
As to `CCOC(=O)CCN1C(=O)c2c(NC(=O)C(=O)O)cccc2S1(=O)=O`, the TGI in [1], in assay [2], in [3], in [4], in [5] and in [7] was over 100 µM throughout. Further, the TGI in [8], in [9] and in [10] was over 100 µM throughout.
In the case of `COc1ccc(Cn2nc(OCc3ccccc3)c3cc([N+](=O)[O-])ccc32)cc1`, the TGI in assay [1], in assay [2], in assay [3], in [4], in assay [5] and in assay [6] was over 100 µM throughout. In addition, the TGI in assay [8], in assay [9] and in assay [10] was over 100 µM in each case.
`CCOC(=O)C1=C(C)N(c2ccc(Cl)cc2)C2(O)C=CC(=O)C3C(=O)N(c4ccccc4)C(=O)C132` (configuration not stated): the TGI in assay [1] was 3.22 µM; in [3], 6.21 µM; in [4], 4.59 µM; in [5], 6.83 µM; in [6], 2.75 µM; in assay [7], 3.25 µM. Besides, the TGI in [8] stood at 6.32 µM; in assay [9] it was 8.1 µM; in assay [10], 3.63 µM.
As to `Cc1nc2cccc(F)c2c(=O)n1-c1nnc(C2CC2)s1`, the TGI in assay [2], in [3], in [4], in [5], in assay [6] and in assay [7] was over 10 µM in each case. Moreover, the TGI in assay [8], in [9] and in assay [10] was over 10 µM throughout.
As for `Cc1cc(C)c(N)c(CO)c1`, the GI50 in assay [1] was 0.0675 µM and 0.183 µM. Further, the TGI in [1] is 0.231 µM and 0.409 µM; in [2], over 100 µM; in assay [4], over 100 µM; in assay [5] it was over 100 µM; in assay [6], over 100 µM; in assay [7] it was over 100 µM. Moreover, the TGI in assay [8] was over 100 µM; in assay [9], over 100 µM; in assay [10], over 90.2 µM.
As to `O=C(Nc1ccccc1C(=O)O)C(=Cc1ccccc1O)NC(=O)c1ccccc1`, the TGI in [1], in [2], in [3], in [4], in assay [5] and in assay [6] was over 100 µM throughout. Moreover, the TGI in [8], in assay [9] and in assay [10] was over 100 µM throughout.
`N#Cc1c(NC(=S)Nc2ccccc2)sc2c1CCCC2`: the TGI in assay [1], in [3], in [4], in assay [5], in [6] and in assay [7] was over 100 µM in each case. Besides, the TGI in assay [8], in assay [9] and in assay [10] was over 100 µM throughout.

Values taken from PubChem BioAssay (NCI).
